# According to patent publication US8501787B2, “Compounds for the inhibition of angiogenesis and use thereof” (Shire Orphan Therapies GmbH, priority 2004, dated 2013):
# Read-outs that look alike come from different tables or passages of the source.
# Key:
# integrin alpha5beta1 = molecular target: T1, integrin alpha5beta1 (Homo sapiens, UniProt P05556+P08648); assay: Alpha5beta1-Fibronectin binding assay (competitive ELISA)
# T1 construct: The integrin alpha5beta1 extracellular domain Fc-fusion was expressed and purified; made in house
# Procedure: (§1) The optimal concentrations of integrin and ligand were selected from ELISA binding studies with variable concentrations of both to obtain optimal signal noise ratio for further studies. IC50 studies were performed with fixed concentration of ligand and integrin and a serial dilution of inhibitor. The plates were measured with SpectraMax Plus reader (Molecular Devices). The resulting inhibition curves were analyzed using SoftMaxPro 4.0 software, the turning point describes the IC50 value.
# (§2) Fibronectin and Vitronectin were purchased from Sigma, fibrinogen from Calbiochem. (EMD Biosciences, Darmstadt, Germany) The integrin alpha5beta1 extracellular domain Fc-fusion was expressed and purified as described in (Coe, 2001, JBC, 276, 35854). Integrins alphavbeta3 and alphavbeta5 were purchased from Chemicon (Chemicon Europe, Germany) and alphaIIbbeta3 form Kordia (Kordia Life Science, Leiden, Netherlands)
# Fibronectin was diluted with coating buffer (15 mM Na2CO3, 35 mM NaHCO3, pH9.6) and coated with 100 μL/well to Nunc-Immuno maxisorp plates (Nalge Nunc Europe Ltd) over night at 4° C. After discarding the coating solution plates were washed 3 times with buffer 1 ([…], pH7.6, 150 mM NaCl, 1 mM […], 1 mg/mL BSA) and blocked with 100 μL blocking buffer (3% BSA in PBS 0.1% Tween20) for 1 hour at room temperature. After washing the blocked plates (3 times) with buffer 1, integrin (50 μL) and either inhibitor (serial dilution in buffer 1) or buffer 1 (50 μL) were added to the wells and incubated for one hour at RT. Plates were then washed (3 times) with buffer 1 and incubated with 100 μL of anti-human-Fc-HRP antibody conjugate (Sigma-Aldrich, Taufkirchen, Germany) in buffer 1 for 1 hour at RT. After additional washing steps (3 times) with buffer 1 50 μL of HRP substrate solution TMB (Seramun, Germany) were added to the wells. Colour development was stopped after 3-5 minutes with 50 μL 1M H2SO4. The developed colour was measured at 450 nm and analyzed as described above.
# integrin alphavbeta3 = molecular target: T2, integrin alphavbeta3 (Homo sapiens, UniProt P05106+P06756); assay: Vitronectin binding assay, alphavbeta3 (competitive ELISA); settings: inhibition of integrin binding to vitronectin
# T2 construct: purchased Chemicon (Chemicon Europe, Germany)
# Procedure: as §1, §2
# (§3) Vitronectin was diluted with coating buffer (15 mM Na2CO3, 35 mM NaHCO3, pH9.6) and coated with 100 μL/well to Nunc-Immuno maxisorp plates over night at 4° C. After discarding the coating solution plates were washed 3 times with buffer 1 (25 mM Tris, pH7.6, 150 mM NaCl, 1 mM MnCl2, 1 mg/mL BSA) and blocked with 100 μL blocking buffer (3% BSA in PBS 0.1% Tween20) for 1 hour at room temperature. […] The developed colour was measured at 450 nm and analyzed as described above.
# integrin alphavbeta5 = molecular target: T3, integrin alphavbeta5 (Homo sapiens, UniProt P06756+P18084); assay: Vitronectin binding assay, alphavbeta5 (competitive ELISA); settings: inhibition of integrin binding to vitronectin
# T3 construct: purchased Chemicon (Chemicon Europe, Germany)
# Procedure: as §1, §2
# Vitronectin was diluted with coating buffer (15 mM Na2CO3, 35 mM NaHCO3, pH9.6) and coated with 50 μL/well to Nunc-Immuno maxisorp plates over night at 4° C. […]
# Plates were then washed (3 times) with buffer 2 and incubated with 50 μL of anti-alphavbeta5 antibody (Chemicon) in buffer 2 for 1 hour at RT. […] The developed colour was measured at 450 nm and analyzed as described above.
# integrin alphaIIbbeta3 = molecular target: T4, integrin alphaIIbbeta3 (Homo sapiens, UniProt P05106+P08514); assay: AlphaIIbbeta3-Fibrinogen binding assay (competitive ELISA); settings: inhibition of integrin binding to fibrinogen; read-out: IC50 alphabIIbbeta3 in nM
# T4 construct: purchased Kordia (Kordia Life Science, Leiden, Netherlands)
# Procedure: as §1, §2
# as §3, with “Fibrinogen” for “Vitronectin”
# retinal angiogenesis = assay: Physiological retinal angiogenesis at newborn rats; type: in vivo, Sprague Dawley rats; settings: intravitreal injection at P1 and P3, evaluated at P6, compared to vehicle treated and non-treated eye
# From the text: Rats are born with a completely avascular retina with physiological retinal vascular development occurring in a centripetal manner within the first two weeks of life. At postnatal day P6 approximately 65% is physiologically vascularized, with vascularization being complete by P10-14.
# Sprague Dawley rats were used according to protocols which are in conformity with the Association for Research in Vision and Ophthalmology's statements on the Use of Animals in Ophthalmic Research.
# Rat pups were taken from within 24 h of birth and injected intravitreally at P1 with 3 μL of selected compound solved in saline. The same injection was repeated at P3. Controls include vehicle injected, as well as uninjected eyes. The animals were sacrificed by decapitation at P6. Upon sacrifice the eyes were enucleated and fixed in 10% buffered formalin phosphate (Fisher Scientific) for 30 minutes at RT. The retinas were dissected and post-fixed in methanol for 10 minutes at −20° C. The retinas were washed with 1% Triton X-100 in PBS and incubated overnight with a 1/100 solution of TRITC conjugated lectin griffonia simplicifolia (Sigma-Aldrich) in 1% Triton X-100 in PBS. […] The percentage of total vascularized area was calculated as a percent of the vascularized area over the total surface area (Adobe-Photoshop).
# [1] = tested on: K562 erythroleukemia cells; assay: Cell adhesion assay with K562 on fibronectin; type: cell-based; settings: at 0.5 μM; OD 570
# Procedure: K562 erythroleukemia cells were obtained from the German Collection of Microorganisms and Cell Cultures GmbH (DMSZ, Braunschweig, Germany). Cells were cultured in RPMI medium containing 10% fetal calf serum, 2 mM glutamine and 100 U/mL penicillin-streptomycin (all from Biochrom AG, Germany).
# The cell adhesion assays were performed in 96-well Nunc-Immuno maxisorp plates. The wells were coated for 1 h at 37° C. with 100 μL aliquots of fibronectin (10 μg/mL in phosphate-buffered-saline, 120-kDa fragment, Chemicon Europe, Germany), then blocked with 10 mg/mL heat denatured BSA in phosphate buffer for 30 min.
# K562 cells were resuspended to 4×10^6 cells/mL in […], 25 mM Hepes, 2 mM EDTA, pH 7.4, and incubated for 30 min at 37° C. As a next step the cells were washed two times with the same buffer. 100 μL cell aliquots were then added to 100 μL aliquots of the same buffer with in addition 4 mM MgCl2, […] and different concentrations of compounds. These samples were preincubated for 30 min at 37° C. After that 100 μL aliquots were transferred to the microtiter wells and the cells were allowed to adhere to the substrate for 30 min at 37° C. in a humidified atmosphere of 5% CO2. […]
# The absorbance of each well at 570 nm was then measured using the SpectraMax Plus reader. […]
# [2] = inhibition of integrin binding to fibronectin, read-out: IC50 alpha5beta1 in nM
# [3] = method of section 1.1, read-out: Group (binding activities to integrin alpha5beta1)
compound,measurement,setting,value
"Cc1cc(C)c(S(=O)(=O)N[C@@H](CNC(=O)CO[C@@H]2C[C@@H](CNc3ccccn3)N(C(=O)OCc3ccccc3)C2)C(=O)O)c(C)c1 [Compound 5, 12S,14R,30S-4-{[2-Carboxy-2-(2,4,6-trimethyl-benzenesulfonylamino)-ethylcarbamoyl]-methoxy}-2-(pyridin-2-ylaminomethyl)-pyrrolidine-1-carboxylic acid benzyl ester]",IC50,integrin alpha5beta1; [2],3.7 nM
same,IC50,integrin alpha5beta1; [3],< 10 nM
same,IC50,integrin alphavbeta3,11.6 nM
same,IC50,integrin alphavbeta5,230 nM
same,IC50,integrin alphaIIbbeta3,9000 nM
same,"retinal angiogenesis (vessel area, % of total retinal area)",retinal angiogenesis,significantly reduced
"Cc1cc(C)c(C(=O)N[C@@H](CNC(=O)CO[C@@H]2C[C@@H](CNc3ccccn3)N(C(=O)OCc3ccccc3)C2)C(=O)O)c(C)c1 [Compound 71, 4-{[2-Carboxy-2-(2,4,6-trimethyl-benzoylamino)-ethylcarbamoyl]-methoxy}-2-(pyridin-2-ylaminomethyl)-pyrrolidine-1-carboxylic acid benzyl ester]",IC50,integrin alpha5beta1; [2],2.4 nM
same,IC50,integrin alpha5beta1; [3],< 10 nM
same,IC50,integrin alphavbeta3,~30000 nM
same,IC50,integrin alphavbeta5,> 50000 nM
same,IC50,integrin alphaIIbbeta3,> 50000 nM
same,inhibition of K562 cell adhesion to fibronectin,[1],significantly active in inhibiting cell adhesion
